± gives the standard deviation of the averaged measurements.
Legend:
SAPACITABINE = compound: CCCCCCCCCCCCCCCC(=O)Nc1ccn([C@@H]2O[C@H](CO)[C@@H](O)[C@@H]2C#N)c(=O)n1 [SAPACITABINE]; test: area under dose-response curve of surviving fraction (unscaled, Aref=0) (surviving fraction x log10(nM)); higher = more resistant; details: exposure time: 5 days; dose range 0.5-1000 nM
Summary of the method: (§1)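 Inhibitor was applied to tumour cell lines at eight concentrations (0.5 to 1000 nM) for five days in 384-well plates. Luminescence from CellTiter-Glo, scaled to DMSO-only wells, gave surviving fractions in three screens per line, and these were fitted by 3-parameter logistic regression with the drc R package. The area under the curve is an unscaled activity area. Aref was 0, and dose was on a log10 scale.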

MDV3100 = compound: CNC(=O)c1ccc(N2C(=S)N(c3ccc(C#N)c(C(F)(F)F)c3)C(=O)C2(C)C)cc1F [MDV3100]; test: as above; details: exposure time: 5 days; dose range 0.5-1000 nM
Summary of the method: as §1

CANERTINIB [1] = compound: T1, C=CC(=O)Nc1cc2c(Nc3ccc(F)c(Cl)c3)ncnc2cc1OCCCN1CCOCC1 [CANERTINIB]; test: as above; details: exposure time: 5 days; dose range 0.5-1000 nM
Summary of the method: as §1

BI-2536 = compound: CC[C@@H]1C(=O)N(C)c2cnc(Nc3ccc(C(=O)NC4CCN(C)CC4)cc3OC)nc2N1C1CCCC1 [BI-2536]; test: as above; details: exposure time: 5 days; dose range 0.5-1000 nM
Summary of the method: as §1

[2] = compound: Cn1cc(C2=Nc3cc(NC(=O)C(N)C4CCCCC4)cc4c3C2=CNNC4=O)cn1; test: surviving fraction relative to DMSO-only wells; higher = less growth inhibition; details: exposure time: 5 days
Summary of the method: (§2)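 Inhibitors were tested at 0.5, 1, 5, 10, 50, 100, 500 and 1000 nM, applied continuously for five days beginning 24 hours after log-phase tumour cells were seeded at 250–500 per well in 384-well plates. CellTiter-Glo luminescence served as the viability measure, expressed as surviving fraction against the median of DMSO-only wells. Each line, screened three times, was kept only with replicate Pearson r >0.7 and median Z' >0.3.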

CANERTINIB [3] = compound: T1, CANERTINIB; test: as above; details: exposure time: 5 days
Summary of the method: as §2

Test System	area under dose-response curve (SAPACITABINE)	area under dose-response curve (MDV3100)	area under dose-response curve (CANERTINIB [1])	area under dose-response curve (BI-2536)	surviving fraction ([2]; 0.5 nM)	surviving fraction ([2]; 1 nM)	surviving fraction ([2]; 5 nM)	surviving fraction ([2]; 10 nM)	surviving fraction ([2]; 50 nM)	surviving fraction ([2]; 100 nM)	surviving fraction ([2]; 500 nM)	surviving fraction ([2]; 1000 nM)	surviving fraction (CANERTINIB [3]; 0.5 nM)	surviving fraction (CANERTINIB [3]; 1 nM)	surviving fraction (CANERTINIB [3]; 5 nM)	surviving fraction (CANERTINIB [3]; 10 nM)	surviving fraction (CANERTINIB [3]; 50 nM)	surviving fraction (CANERTINIB [3]; 100 nM)	surviving fraction (CANERTINIB [3]; 500 nM)	surviving fraction (CANERTINIB [3]; 1000 nM)
HCC70 BREAST	2.57	3.28	3	2	1.04 ± 0.035	1.19 ± 0.054	1.13 ± 0.046	1.09 ± 0.063	0.758 ± 0.028	0.313 ± 0.076	0.0723 ± 0.014	0.042 ± 0.0052	0.991 ± 0.14	1.088 ± 0.0046	1.02 ± 0.078	0.96 ± 0.019	0.911 ± 0.047	0.893 ± 0.017	0.707 ± 0.0092	0.666 ± 0.068
MDAMB361 BREAST	2.49	2.85	2.35	1.68	0.751 ± 0.014	0.706 ± 0.065	0.71 ± 0.023	0.656 ± 0.061	0.456 ± 0.028	0.399 ± 0.032	0.43 ± 0.013	0.49 ± 0.013	0.704 ± 0.05	0.718 ± 0.16	0.642 ± 0.011	0.674 ± 0.078	0.74 ± 0.064	0.832 ± 0.092	0.691 ± 0.067	0.682 ± 0.053
SG32 HEADNECK	1.91	3.4	2.35	1.44	1.12 ± 0.29	1.13 ± 0.1	1.14 ± 0.091	1.12 ± 0.14	0.881 ± 0.065	0.774 ± 0.19	0.273 ± 0.099	0.222 ± 0.087	0.647 ± 0.084	0.826 ± 0.11	0.778 ± 0.12	0.839 ± 0.094	0.786 ± 0.15	0.703 ± 0.14	0.577 ± 0.09	0.501 ± 0.031
HT1080 SOFT TISSUE	2.33	3.42	3.29	1.26	0.977 ± 0.013	1.01 ± 0.03	0.987 ± 0.028	1.03 ± 0.025	0.879 ± 0.041	0.812 ± 0.013	0.153 ± 0.0023	0.122 ± 0.016	1.02 ± 0.015	1.05 ± 0.03	0.9963 ± 0.0099	0.997 ± 0.0076	1.019 ± 0.0087	0.987 ± 0.031	0.982 ± 0.058	0.97 ± 0.038
CME SYNOVIAL	1.45	2.99	3.18	1.64	1.243 ± 0.0098	1.27 ± 0.03	1.3 ± 0.06	1.23 ± 0.059	1.13 ± 0.049	1.02 ± 0.065	0.733 ± 0.036	0.414 ± 0.0087	0.93 ± 0.083	0.969 ± 0.098	0.918 ± 0.065	0.888 ± 0.087	1.18 ± 0.034	1.2 ± 0.11	1.05 ± 0.033	0.876 ± 0.11
T47D BREAST	2.9	3.29	3.01	1.66	0.9916 ± 0.0057	1.02 ± 0.032	1.03 ± 0.041	1.07 ± 0.022	1.12 ± 0.044	1.14 ± 0.059	0.896 ± 0.023	0.661 ± 0.021	0.926 ± 0.051	0.898 ± 0.024	0.922 ± 0.058	0.899 ± 0.037	0.973 ± 0.021	0.96 ± 0.012	0.893 ± 0.015	0.874 ± 0.031
SUM149 BREAST	1.31	2.73	1.76	0.784	0.875 ± 0.087	0.854 ± 0.13	0.874 ± 0.14	0.911 ± 0.1	0.481 ± 0.067	0.238 ± 0.047	0.0587 ± 0.0096	0.063 ± 0.0062	0.898 ± 0.078	0.832 ± 0.052	0.627 ± 0.029	0.531 ± 0.04	0.451 ± 0.053	0.424 ± 0.072	0.324 ± 0.037	0.279 ± 0.037
HELA CERVIX	2.94	3.16	3.11	1	1.1 ± 0.028	1.1 ± 0.059	1.11 ± 0.045	1.01 ± 0.013	1.11 ± 0.082	1.15 ± 0.035	1.15 ± 0.038	1.09 ± 0.046	0.9167 ± 0.0022	0.8778 ± 0.0083	0.888 ± 0.024	0.865 ± 0.023	1.04 ± 0.084	0.979 ± 0.074	1.02 ± 0.074	1 ± 0.039
MHM BONE	2.69	3.28	3.2	2.08	0.998 ± 0.018	1.01 ± 0.032	1.051 ± 0.01	1.031 ± 0.002	1.12 ± 0.021	1.15 ± 0.034	0.394 ± 0.034	0.183 ± 0.02	0.981 ± 0.051	0.983 ± 0.038	1.03 ± 0.054	1 ± 0.051	0.9877 ± 0.0076	0.953 ± 0.021	0.903 ± 0.019	0.863 ± 0.018
BT549 BREAST	1.85	3.26	2.74	0.891	1.07 ± 0.11	0.943 ± 0.079	0.957 ± 0.21	1.05 ± 0.14	0.659 ± 0.073	0.371 ± 0.012	0.0533 ± 0.008	0.027 ± 0.006	0.752 ± 0.037	0.886 ± 0.18	0.832 ± 0.08	0.808 ± 0.042	0.937 ± 0.18	1.08 ± 0.052	0.811 ± 0.072	0.47 ± 0.058
U2OS BONE	2.92	3.37	3.13	1.57	1.06 ± 0.016	1.08 ± 0.029	1.1 ± 0.045	1.08 ± 0.04	1.04 ± 0.029	0.999 ± 0.029	0.201 ± 0.017	0.0873 ± 0.0068	0.951 ± 0.022	0.95 ± 0.041	0.942 ± 0.025	0.962 ± 0.047	0.991 ± 0.0096	0.991 ± 0.029	0.877 ± 0.017	0.889 ± 0.059
COLO320DM LARGE INTESTINE	2.44	3.31	3.25	1.68	0.957 ± 0.12	1.09 ± 0.15	0.97 ± 0.076	1.08 ± 0.11	1.01 ± 0.23	0.954 ± 0.098	0.877 ± 0.13	0.664 ± 0.053	1.14 ± 0.076	1.15 ± 0.042	1.04 ± 0.062	1.05 ± 0.06	1.11 ± 0.084	1.04 ± 0.047	0.893 ± 0.032	0.66 ± 0.018
